Source: ChEMBL document CHEMBL3832056, “DailyMed|setid=5ad109ec-1fff-498c-bc91-e2e5481122bc | RAMIPRIL- ramipril capsule|Lake Erie Medical DBA Quality Care Products LLC”

Tests used:
Homo sapiens [1] = assay: Half-life of Ramiprilat, active metabolite of Ramipril, evaluated after oral administration of multiple doses of 5 mg Ramipril.; format: ADME, organism-based; settings: in vivo, dose 5 to 10 mg, dosed compound id 51, dosed compound name RAMIPRIL, regimen Multiple dose, tissue Plasma
Homo sapiens [2] = assay: Pharmacokinetic parameters for Ramipril, and its active metabolite Ramiprilat evaluated after oral administration of Ramipril.; format: ADME, organism-based; settings: in vivo, dosed compound id 51, dosed compound name RAMIPRIL, regimen Single dose; for F: at 5 mg

Row | t1/2 (Homo sapiens [1]) | F (Homo sapiens [2]; tissue Plasma) | Tmax (Homo sapiens [2]; tissue Plasma) | Excretion (Homo sapiens [2]; tissue Feces) | Absorption (Homo sapiens [2]; tissue Plasma) | Excretion (Homo sapiens [2]; tissue Urine) | SMILES
1 | 13 to 17 h | 44% | 2 to 4 h | – | – | – | C[C@H](N[C@@H](CCc1ccccc1)C(=O)O)C(=O)N1[C@H](C(=O)O)C[C@@H]2CCC[C@@H]21 [RAMIPRILAT]
2 | – | 28% | 1 h | 40% | 50 to 60% | 60% | CCOC(=O)[C@H](CCc1ccccc1)N[C@@H](C)C(=O)N1[C@H](C(=O)O)C[C@@H]2CCC[C@@H]21 [RAMIPRIL]
